≈ marks a conversion by molar mass, not a printed value.
Legend:
Candida albicans = assay: Antimicrobial activity, micro-broth dilution method (Test 1); format: cell-based; conditions: E. MEM, 37° C., 20 hours, 5% CO2, read-out: MIC (minimum inhibitory concentration)
Method: (§1) Test 1 (Antimicrobial activity)
(§2) Antimicrobial activity of FR109615 was measured by a conventional micro-broth dilution method using 96 well multi-trays.
(§3) A suspension of the test microorganism (10^6 cells/ml) was prepared by diluting an overnight cultured broth of the organism with Eagle's minimum essential medium (E. MEM). A serially diluted solution of FR109615 in E. MEM (100 μl ) was added to a well of the multi-tray. To the well, the suspension of the test organism was added. The multi-trays were incubated at 37° C. for 20 hours in 5% CO2 atmosphere.

Candida krusei = assay: as above; format: cell-based; conditions: Pichia kudriavzevii, E. MEM, 37° C., 20 hours, 5% CO2, read-out: MIC (minimum inhibitory concentration)
Method: as §1, §2, §3

Candida utilis = assay: as above; format: cell-based; conditions: Williopsis jadinii, E. MEM, 37° C., 20 hours, 5% CO2, read-out: MIC (minimum inhibitory concentration)
Method: as §1, §2, §3

Mucor rouxianus = assay: as above; format: cell-based; conditions: E. MEM, 37° C., 20 hours, 5% CO2, read-out: MIC (minimum inhibitory concentration)
Method: as §1, §2, §3

[1] = tested on: Tricophyton mentagrophytes; assay: as above; format: cell-based; conditions: E. MEM, 37° C., 20 hours, 5% CO2, read-out: MIC (minimum inhibitory concentration)
Method: as §1, §2, §3

C. krusei FP585 = assay: Protective effect against fungi in experimental mice infection (Test 2); format: in vivo, ICR strain; conditions: Pichia kudriavzevii, sc, 336 h; C. krusei FP585, inoculum 2.0 × 10^7 cfu/head; cyclophosphamide-immunosuppressed mice; subcutaneous, 1 h after challenge then twice a day for 2 days; survival 14 days, probit method
Method: (§4) Test 2 (Protective effect of FR109615 against fungi in experimental mice infection) (1) Test animal 4 Weeks old mice, ICR strain, each weighing 18-21 g. One group consists of 10 mice. (2) Test method 4 Days before challenge, the test mice intraperitoneally received a saline solution of cyclophosphamide (immunosuppressant) ([…]). Each pf pathogenic microorganisms suspended in saline were injected into mice via the lateral tail vein. One hour after challenge, a saline solution of FR109615 was subcutaneously injected into the mice. This treatment was repeated twice a day for 2 days from the next day after challenge.

[2] = tested on: C. pseudotropicalis FP584; assay: as above; format: in vivo, ICR strain; conditions: Kluyveromyces marxianus, sc, 336 h; C. pseudotropicalis FP584, inoculum 2.0 × 10^7 cfu/head; cyclophosphamide-immunosuppressed mice; subcutaneous, 1 h after challenge then twice a day for 2 days; survival 14 days, probit method
Method: as §4

C. stellatoidea FP588 = assay: as above; format: in vivo, ICR strain; conditions: Candida albicans, sc, 336 h; C. stellatoidea FP588, inoculum 2.0 × 10^6 cfu/head; cyclophosphamide-immunosuppressed mice; subcutaneous, 1 h after challenge then twice a day for 2 days; survival 14 days, probit method
Method: as §4

C. tropicalis 8001 = assay: as above; format: in vivo, ICR strain; conditions: Candida tropicalis, sc, 336 h; C. tropicalis 8001, inoculum 5.6 × 10^4 cfu/head; cyclophosphamide-immunosuppressed mice; subcutaneous, 1 h after challenge then twice a day for 2 days; survival 14 days, probit method
Method: as §4

Candida albicans FP622 = assay: as above; format: in vivo, ICR strain; conditions: sc, 336 h; Candida albicans FP622, inoculum 4.8 × 10^4 cfu/head; cyclophosphamide-immunosuppressed mice; subcutaneous, 1 h after challenge then twice a day for 2 days; survival 14 days, probit method
Method: as §4

[3] = tested on: Staphylococcus aureus Smith; assay: Protective effect against bacteria in experimental mice infection (Test 3); format: in vivo, ICR strain; conditions: inoculum 2.5 × 10^8 cfu, 10 mg/kg subcutaneous once a day for 4 days, 11 days observation, all control mice died
Method: Test 3 (Protective effect of FR109615 against bacteria in experimental mice infection)
4 Weeks old mice, ICR strain, each weighing 18-21 g. One group consists of 10 mice.
Pathogenic microorganism suspended in saline were injected into mice via the lateral tail vein. After challenge, a saline solution of FR109615 was subcutaneously injected into the mice (Dosage: 10 mg/kg) once a day for 4 days. […] All of the control mice (non-treatment group) died.

ICR mice = assay: Acute toxicity (Test 4); format: in vivo, 4 weeks old); conditions: female, single intravenous injection, 1 g/kg
Method: The acute toxicity of FR109615 was determined to ICR mice (female, 4 weeks old) by a single intravenous injection.

[4] = Solubility (physicochemical properties)
[5] = tested on: pathogenic microorganisms, especially pathogenic fungi such as pathogenic yeast (e.g. Candida albicans); assay: Antimicrobial activity against pathogenic microorganisms (general statement)

N[C@H]1CCC[C@H]1C(=O)O [FR109615, (1R, 2S)-2-aminocyclopentanecarboxylic]
MIC (Candida albicans): 16 µg/mL (≈ 124 µM) | MIC (Candida krusei): 8 µg/mL (≈ 61.9 µM) | MIC (Candida utilis): 32 µg/mL (≈ 248 µM) | MIC (Mucor rouxianus): 500 µg/mL (≈ 3870 µM) | MIC [1]: 250 µg/mL (≈ 1940 µM) | ED50 (C. krusei FP585): 0.78 mg/kg | ED50 [2]: 2.38 mg/kg | ED50 (C. stellatoidea FP588): 1.11 mg/kg | ED50 (C. tropicalis 8001): 3.8 mg/kg | ED50 (Candida albicans FP622): 0.87 mg/kg | survival ratio [3]: 100% | acute toxicity, toxic symptom (ICR mice): No toxic symptom was observed | Solubility ([4]; Acetone): Insoluble | Solubility ([4]; Chloroform): Insoluble | Solubility ([4]; Ethanol): Sparingly soluble | Solubility ([4]; Ethyl acetate): Insoluble | Solubility ([4]; Methanol): Sparingly soluble | Solubility ([4]; Water): Soluble | antimicrobial activity [5]: strong antimicrobial activity

Reference: patent US5514715A, “Antimicrobial agent, FR109615 and production thereof” (Fujisawa Pharmaceutical Co., Ltd., priority 1987, dated 1996)
